# Assay results from US9304136B2, “Means and methods for assessing increased peroxisomal proliferation” (BASF SE, priority 2008, dated 2016).
# Columns and labels:
# male rats = assay: Plasma metabolite profiling after 28-day oral dosing, male rats (markers for peroxisomal proliferators); assay type: in vivo, rat; settings: once daily gavage; for 16-Methylheptadecanoic acid, change in plasma relative to control / 17-Methyloctadecanoic acid, change in plasma relative to control / Coenzyme Q10, change in plasma relative to control / Proline, change in plasma relative to control / Threonine, change in plasma relative to control / Tyrosine, change in plasma relative to control / trans-4-Hydroxyproline, change in plasma relative to control: marker direction down; for Eicosatrienoic acid (C20:3), change in plasma relative to control: marker direction up
# Method: (§1) A group of each 5 male and female rats was dosed once daily with the indicated compounds (see tables below) at 10 and 100 mg/kg body weight per gavage over 28 days. Additional groups of each 5 male and female animals served as controls. Before starting the treatment period, animals, which were 62-64 days old when supplied, were acclimatized to the housing and environmental conditions for 7 days. All animals of the animal population were kept under the same constant temperature (20-24±3° C.) and the same constant humidity (30-70%). Each animal of the animal population was kept in a separate cage. The animals of the animal population are fed ad libitum. The food to be used was be essentially free of chemical or microbial contaminants. Drinking water was also offered ad libitum. Accordingly, the water was be free of chemical and microbial contaminants as laid down in the European Drinking Water Directive 98/83/EG. The illumination period was 12 hours light followed by 12 hours darkness (12 hours light, from 6:00 to 18:00, and 12 hours darkness, from 18:00 to 6:00).
# (§2) In the morning of day 7, 14, and 28, blood was taken from the retroorbital venous plexus from fasted anaesthetized animals. From each animal, 1 ml of blood was collected with EDTA as anticoagulant. The samples were be centrifuged for generation of plasma. All plasma samples were covered with a N2 atmosphere and then stored at −80° C. until analysis.
# (§3) For mass spectrometry-based metabolite profiling analyses plasma samples were extracted and a polar and a non-polar fraction was obtained. For GC-MS analysis, the non-polar fraction was […] with methanol under acidic conditions to yield the fatty acid methyl esters. Both fractions were further derivatised with O-methyl-hydroxyamine hydrochloride and pyridine to convert Oxo-groups to O-metyloximes and subsequently with a silyating agent […]. In LC-MS analysis, both fractions were reconstituted in appropriate solvent mixtures. HPLC was performed by gradient elution on reversed phase separation columns. For mass spectrometric detection metanomics proprietary technology was applied which allows target and high sensitivity MRM (Multiple Reaction Monitoring) profiling in parallel to a full screen analysis.
# (§4) Following comprehensive analytical validation steps, the data for each analyte were normalized against data from pool samples. These samples were run in parallel through the whole process to account for process variability. The significance of treatment group values specific for sex, dose group and metabolite was determined by comparing means of the treated groups to the means of the respective untreated control groups using Student's t-test. Normalized treatment group values and their significance were fed into a database for further statistics and data mining processes.
# (§5) The changes of the group of plasma metabolites being indicative for increased peroxisomal proliferation after treatment of the rats are shown in the following tables: […]
# female rats = assay: Plasma metabolite profiling after 28-day oral dosing, female rats (markers for peroxisomal proliferators); assay type: in vivo, rat; settings: once daily gavage; for 16-Methylheptadecanoic acid, change in plasma relative to control / 17-Methyloctadecanoic acid, change in plasma relative to control / Cytosine, change in plasma relative to control / Phosphatidylcholine (C18:0/C22:6), change in plasma relative to control: marker direction down; for Coenzyme Q9, change in plasma relative to control / Gamma-Linolenic acid (C18:cis[6,9,12]3), change in plasma relative to control / Glycerol, lipid fraction, change in plasma relative to control / Palmitic acid (C16:0), change in plasma relative to control / Pantothenic acid, change in plasma relative to control / Threonic acid, change in plasma relative to control: marker direction up
# Method: as §1, §2, §3, §4, §5
compound,measurement,setting,value
CCCCOC(=O)c1ccccc1C(=O)OCc1ccccc1 [Benzylbutyl Phthalate],"16-Methylheptadecanoic acid, change in plasma relative to control",male rats; mh7 (day 7),0.24
same,"17-Methyloctadecanoic acid, change in plasma relative to control",male rats; mh7 (day 7),0.37
same,"Coenzyme Q10, change in plasma relative to control",male rats; mh7 (day 7),0.51
same,"Proline, change in plasma relative to control",male rats; mh7 (day 7),0.74
same,"Threonine, change in plasma relative to control",male rats; mh7 (day 7),0.55
same,"Tyrosine, change in plasma relative to control",male rats; mh7 (day 7),0.74
same,"trans-4-Hydroxyproline, change in plasma relative to control",male rats; mh7 (day 7),0.69
same,"Eicosatrienoic acid (C20:3), change in plasma relative to control",male rats; mh7 (day 7),2.56
same,"16-Methylheptadecanoic acid, change in plasma relative to control",male rats; mh14 (day 14),0.31
same,"17-Methyloctadecanoic acid, change in plasma relative to control",male rats; mh14 (day 14),0.28
same,"Coenzyme Q10, change in plasma relative to control",male rats; mh14 (day 14),0.34
same,"Proline, change in plasma relative to control",male rats; mh14 (day 14),0.85
same,"Threonine, change in plasma relative to control",male rats; mh14 (day 14),0.69
same,"Tyrosine, change in plasma relative to control",male rats; mh14 (day 14),0.83
same,"trans-4-Hydroxyproline, change in plasma relative to control",male rats; mh14 (day 14),0.65
same,"Eicosatrienoic acid (C20:3), change in plasma relative to control",male rats; mh14 (day 14),3.12
same,"16-Methylheptadecanoic acid, change in plasma relative to control",male rats; mh28 (day 28),0.20
same,"17-Methyloctadecanoic acid, change in plasma relative to control",male rats; mh28 (day 28),0.30
same,"Coenzyme Q10, change in plasma relative to control",male rats; mh28 (day 28),0.27
same,"Proline, change in plasma relative to control",male rats; mh28 (day 28),0.84
same,"Threonine, change in plasma relative to control",male rats; mh28 (day 28),0.81
same,"Tyrosine, change in plasma relative to control",male rats; mh28 (day 28),0.97
same,"trans-4-Hydroxyproline, change in plasma relative to control",male rats; mh28 (day 28),0.83
same,"Eicosatrienoic acid (C20:3), change in plasma relative to control",male rats; mh28 (day 28),4.12
same,"16-Methylheptadecanoic acid, change in plasma relative to control",female rats; fh7 (day 7),0.55
same,"17-Methyloctadecanoic acid, change in plasma relative to control",female rats; fh7 (day 7),0.78
same,"Cytosine, change in plasma relative to control",female rats; fh7 (day 7),0.77
same,"Phosphatidylcholine (C18:0/C22:6), change in plasma relative to control",female rats; fh7 (day 7),0.59
same,"Coenzyme Q9, change in plasma relative to control",female rats; fh7 (day 7),1.44
same,"Gamma-Linolenic acid (C18:cis[6,9,12]3), change in plasma relative to control",female rats; fh7 (day 7),1.98
same,"Glycerol, lipid fraction, change in plasma relative to control",female rats; fh7 (day 7),1.15
same,"Palmitic acid (C16:0), change in plasma relative to control",female rats; fh7 (day 7),1.48
same,"Pantothenic acid, change in plasma relative to control",female rats; fh7 (day 7),1.82
same,"Threonic acid, change in plasma relative to control",female rats; fh7 (day 7),1.20
same,"16-Methylheptadecanoic acid, change in plasma relative to control",female rats; fh14 (day 14),0.66
same,"17-Methyloctadecanoic acid, change in plasma relative to control",female rats; fh14 (day 14),0.64
same,"Cytosine, change in plasma relative to control",female rats; fh14 (day 14),0.63
same,"Phosphatidylcholine (C18:0/C22:6), change in plasma relative to control",female rats; fh14 (day 14),0.86
same,"Coenzyme Q9, change in plasma relative to control",female rats; fh14 (day 14),1.50
same,"Gamma-Linolenic acid (C18:cis[6,9,12]3), change in plasma relative to control",female rats; fh14 (day 14),1.64
same,"Glycerol, lipid fraction, change in plasma relative to control",female rats; fh14 (day 14),1.48
same,"Palmitic acid (C16:0), change in plasma relative to control",female rats; fh14 (day 14),1.79
same,"Pantothenic acid, change in plasma relative to control",female rats; fh14 (day 14),2.06
same,"Threonic acid, change in plasma relative to control",female rats; fh14 (day 14),1.53
same,"16-Methylheptadecanoic acid, change in plasma relative to control",female rats; fh28 (day 28),0.85
same,"17-Methyloctadecanoic acid, change in plasma relative to control",female rats; fh28 (day 28),0.69
same,"Cytosine, change in plasma relative to control",female rats; fh28 (day 28),0.79
same,"Phosphatidylcholine (C18:0/C22:6), change in plasma relative to control",female rats; fh28 (day 28),0.81
same,"Coenzyme Q9, change in plasma relative to control",female rats; fh28 (day 28),1.78
same,"Gamma-Linolenic acid (C18:cis[6,9,12]3), change in plasma relative to control",female rats; fh28 (day 28),2.08
same,"Glycerol, lipid fraction, change in plasma relative to control",female rats; fh28 (day 28),2.43
same,"Palmitic acid (C16:0), change in plasma relative to control",female rats; fh28 (day 28),1.94
same,"Pantothenic acid, change in plasma relative to control",female rats; fh28 (day 28),2.42
same,"Threonic acid, change in plasma relative to control",female rats; fh28 (day 28),1.74
CCOC(=O)C(C)(C)Oc1ccc(Cl)cc1 [Clofibrate],"16-Methylheptadecanoic acid, change in plasma relative to control",male rats; mh7 (day 7),0.24
same,"17-Methyloctadecanoic acid, change in plasma relative to control",male rats; mh7 (day 7),0.35
same,"Coenzyme Q10, change in plasma relative to control",male rats; mh7 (day 7),0.45
same,"Proline, change in plasma relative to control",male rats; mh7 (day 7),0.78
same,"Threonine, change in plasma relative to control",male rats; mh7 (day 7),0.68
same,"Tyrosine, change in plasma relative to control",male rats; mh7 (day 7),0.87
same,"trans-4-Hydroxyproline, change in plasma relative to control",male rats; mh7 (day 7),0.77
same,"Eicosatrienoic acid (C20:3), change in plasma relative to control",male rats; mh7 (day 7),1.65
same,"16-Methylheptadecanoic acid, change in plasma relative to control",male rats; mh14 (day 14),0.21
same,"17-Methyloctadecanoic acid, change in plasma relative to control",male rats; mh14 (day 14),0.27
same,"Coenzyme Q10, change in plasma relative to control",male rats; mh14 (day 14),0.60
same,"Proline, change in plasma relative to control",male rats; mh14 (day 14),0.80
same,"Threonine, change in plasma relative to control",male rats; mh14 (day 14),1.02
same,"Tyrosine, change in plasma relative to control",male rats; mh14 (day 14),0.95
same,"trans-4-Hydroxyproline, change in plasma relative to control",male rats; mh14 (day 14),0.64
same,"Eicosatrienoic acid (C20:3), change in plasma relative to control",male rats; mh14 (day 14),1.72
same,"16-Methylheptadecanoic acid, change in plasma relative to control",male rats; mh28 (day 28),0.28
same,"17-Methyloctadecanoic acid, change in plasma relative to control",male rats; mh28 (day 28),0.37
same,"Coenzyme Q10, change in plasma relative to control",male rats; mh28 (day 28),0.47
same,"Proline, change in plasma relative to control",male rats; mh28 (day 28),0.87
same,"Threonine, change in plasma relative to control",male rats; mh28 (day 28),1.06
same,"Tyrosine, change in plasma relative to control",male rats; mh28 (day 28),1.02
same,"trans-4-Hydroxyproline, change in plasma relative to control",male rats; mh28 (day 28),0.57
same,"Eicosatrienoic acid (C20:3), change in plasma relative to control",male rats; mh28 (day 28),2.54
same,"16-Methylheptadecanoic acid, change in plasma relative to control",female rats; fh7 (day 7),0.55
same,"17-Methyloctadecanoic acid, change in plasma relative to control",female rats; fh7 (day 7),0.48
same,"Cytosine, change in plasma relative to control",female rats; fh7 (day 7),0.87
same,"Phosphatidylcholine (C18:0/C22:6), change in plasma relative to control",female rats; fh7 (day 7),0.88
same,"Coenzyme Q9, change in plasma relative to control",female rats; fh7 (day 7),1.86
same,"Gamma-Linolenic acid (C18:cis[6,9,12]3), change in plasma relative to control",female rats; fh7 (day 7),2.04
same,"Glycerol, lipid fraction, change in plasma relative to control",female rats; fh7 (day 7),1.39
same,"Palmitic acid (C16:0), change in plasma relative to control",female rats; fh7 (day 7),1.05
same,"Pantothenic acid, change in plasma relative to control",female rats; fh7 (day 7),1.07
same,"Threonic acid, change in plasma relative to control",female rats; fh7 (day 7),1.23
same,"16-Methylheptadecanoic acid, change in plasma relative to control",female rats; fh14 (day 14),0.75
same,"17-Methyloctadecanoic acid, change in plasma relative to control",female rats; fh14 (day 14),0.57
same,"Cytosine, change in plasma relative to control",female rats; fh14 (day 14),0.86
same,"Phosphatidylcholine (C18:0/C22:6), change in plasma relative to control",female rats; fh14 (day 14),0.71
same,"Coenzyme Q9, change in plasma relative to control",female rats; fh14 (day 14),1.64
same,"Gamma-Linolenic acid (C18:cis[6,9,12]3), change in plasma relative to control",female rats; fh14 (day 14),1.88
same,"Glycerol, lipid fraction, change in plasma relative to control",female rats; fh14 (day 14),1.64
same,"Palmitic acid (C16:0), change in plasma relative to control",female rats; fh14 (day 14),1.38
same,"Pantothenic acid, change in plasma relative to control",female rats; fh14 (day 14),1.75
same,"Threonic acid, change in plasma relative to control",female rats; fh14 (day 14),1.30
same,"16-Methylheptadecanoic acid, change in plasma relative to control",female rats; fh28 (day 28),0.75
same,"17-Methyloctadecanoic acid, change in plasma relative to control",female rats; fh28 (day 28),0.77
same,"Cytosine, change in plasma relative to control",female rats; fh28 (day 28),1.00
same,"Phosphatidylcholine (C18:0/C22:6), change in plasma relative to control",female rats; fh28 (day 28),0.53
same,"Coenzyme Q9, change in plasma relative to control",female rats; fh28 (day 28),2.55
same,"Gamma-Linolenic acid (C18:cis[6,9,12]3), change in plasma relative to control",female rats; fh28 (day 28),7.00
same,"Glycerol, lipid fraction, change in plasma relative to control",female rats; fh28 (day 28),4.99
same,"Palmitic acid (C16:0), change in plasma relative to control",female rats; fh28 (day 28),2.31
same,"Pantothenic acid, change in plasma relative to control",female rats; fh28 (day 28),1.22
same,"Threonic acid, change in plasma relative to control",female rats; fh28 (day 28),1.30
